Results published in PubChem BioAssay AID220 (DTP/NCI, 2004).
Where “and” joins values, the source holds several entries; their conditions need not be identical. Equal entries are not always repeated. Results filed as inconclusive are left out.

Test system: CD8F1 mice, subcutaneous mammary adenocarcinoma, T/C%
Experiment: NCI In Vivo Anticancer Drug Screen. Data for tumor model Mammary Adenocarcinoma CD8F1 (subcutaneous) in CD8F1
Conditions: higher = larger tumour
Experimental: The antitumor activity of compounds was measured in mice bearing transplantable tumors. Survival or tumor size were measured and the results are expressed as the measurement made in the treated group (T) divided by the measurement made in the vehicle treated control group (C). The tumor model used in this assay is Mammary Adenocarcinoma CD8F1 (subcutaneous) in CD8F1

[1] = endpoint: median tumor weight (est.), dose: 6.25 mg/kg/injection, schedule: Q07DX005 (ip), vehicle: saline with Tween-80
[2] = endpoint: median tumor weight (est.), dose: 12.5 mg/kg/injection, schedule: Q07DX005 (ip), vehicle: saline with Tween-80
[3] = endpoint: median tumor weight (est.), dose: 25.0 mg/kg/injection, schedule: Q07DX005 (ip), vehicle: saline with Tween-80
[4] = endpoint: median tumor weight (est.), dose: 50.0 mg/kg/injection, schedule: Q07DX005 (ip), vehicle: saline with Tween-80
[5] = endpoint: median tumor weight (est.), dose: 12.5 mg/kg/injection, schedule: Q07DX005 (ip), vehicle: Klucel (hydroxypropylcellulose) (HPC)
[6] = endpoint: median tumor weight (est.), dose: 25.0 mg/kg/injection, schedule: Q07DX005 (ip), vehicle: Klucel (hydroxypropylcellulose) (HPC)
[7] = endpoint: median tumor weight (est.), dose: 50.0 mg/kg/injection, schedule: Q07DX005 (ip), vehicle: Klucel (hydroxypropylcellulose) (HPC)
[8] = endpoint: median tumor weight (est.), dose: 100.0 mg/kg/injection, schedule: Q07DX005 (ip), vehicle: Klucel (hydroxypropylcellulose) (HPC)
[9] = endpoint: median tumor weight (est.), dose: 200.0 mg/kg/injection, schedule: Q07DX005 (ip), vehicle: Klucel (hydroxypropylcellulose) (HPC)
[10] = endpoint: median tumor weight (est.), dose: 50.0 mg/kg/injection, schedule: Q07DX005 (ip), vehicle: saline
[11] = endpoint: median tumor weight (est.), dose: 100.0 mg/kg/injection, schedule: Q07DX005 (ip), vehicle: saline
[12] = endpoint: median tumor weight (est.), dose: 200.0 mg/kg/injection, schedule: Q07DX005 (ip), vehicle: saline

In the case of `CSc1ccc2c(c1)C(N1CCN(C)CC1)Cc1ccccc1S2` (stereo not drawn), the T/C (endpoint: median tumor weight (est.), dose: 3.12 mg/kg/injection, schedule: Q07DX005 (ip), vehicle: saline with Tween-80) is reported as 104 % of control, the T/C [1] is reported as 95 % of control and the T/C [2] is reported as 63 % of control. The T/C [3] was 53 % of control and the T/C [4] was 104 % of control.
For `O=C1C(O)=C(c2ccccc2)C(=O)C(O)=C1c1ccccc1`, the T/C (endpoint: median tumor weight change, dose: 31.0 mg/kg/injection, schedule: Q01DX001 (ip), vehicle: saline with Tween-80) was 105 % of control, the T/C (endpoint: median tumor weight change, dose: 62.0 mg/kg/injection, schedule: Q01DX001 (ip), vehicle: saline with Tween-80) was 58 % of control and the T/C (endpoint: median tumor weight change, dose: 125.0 mg/kg/injection, schedule: Q01DX001 (ip), vehicle: saline with Tween-80) was 104 % of control.
For `BrCC[Se]c1ccccc1`, the T/C [1] was 78 % of control, the T/C [2] was 104 % of control and the T/C [3] was 80 % of control. For the same compound, the T/C [4] was 152 % of control.
`C=CCNc1ccc(C)cc1` was tested, and the T/C (endpoint: median tumor weight (est.), dose: 6.25 mg/kg/injection, schedule: Q07DX005 (ip), vehicle: Klucel (hydroxypropylcellulose) (HPC)) was 73 % of control, the T/C [5] was 77 % of control and the T/C [6] was 80 % of control. The T/C [7] was 57 % of control, the T/C [8] was 88 % of control and the T/C [9] was 62 % of control.
For `Cc1cn(C2CC3[O][Sn]([c]4ccccc4)([c]4ccccc4)[O]CC3O2)c(=O)[nH]c1=O` (stereo not drawn), the T/C [2] was 73 % of control, the T/C (endpoint: median tumor weight (est.), dose: 12.5 mg/kg/injection, schedule: Q07DX005 (ip), vehicle: saline) was 63 % of control and the T/C [3] was 40 % of control. For the same compound, the T/C (endpoint: median tumor weight (est.), dose: 25.0 mg/kg/injection, schedule: Q07DX005 (ip), vehicle: saline) was 16 % of control, the T/C [4] was 67 % of control and the T/C [10] was 84 % of control. For the same compound, the T/C (endpoint: median tumor weight (est.), dose: 100.0 mg/kg/injection, schedule: Q07DX005 (ip), vehicle: saline with Tween-80) was 81 % of control, the T/C [11] was 49 % of control and the T/C (endpoint: median tumor weight (est.), dose: 200.0 mg/kg/injection, schedule: Q07DX005 (ip), vehicle: saline with Tween-80) was 73 % of control. The T/C [12] was 74 % of control and the T/C (endpoint: median tumor weight (est.), dose: 500.0 mg/kg/injection, schedule: Q07DX005 (ip), vehicle: saline with Tween-80) was 47 % of control.
In the case of `CCOC(=O)c1ccc(NC(=O)Nc2nncs2)cc1`, the T/C (endpoint: median tumor weight (est.), dose: 12.5 mg/kg/injection, schedule: Q07DX005 (ip), vehicle: distilled water + Tween-80) is reported as 239 % of control, the T/C (endpoint: median tumor weight (est.), dose: 25.0 mg/kg/injection, schedule: Q07DX005 (ip), vehicle: distilled water + Tween-80) is reported as 259 % of control and the T/C (endpoint: median tumor weight (est.), dose: 50.0 mg/kg/injection, schedule: Q07DX005 (ip), vehicle: distilled water + Tween-80) is reported as 69 % of control. The T/C (endpoint: median tumor weight (est.), dose: 400.0 mg/kg/injection, schedule: Q07DX005 (ip), vehicle: distilled water + Tween-80) was 156 % of control.
`CN1CCN(c2ccc([N+](=O)[O-])c3no[n+]([O-])c23)CC1` was tested, and the T/C (endpoint: median tumor weight (est.), dose: 5.0 mg/kg/injection, schedule: Q07DX005 (ip), vehicle: saline with Tween-80) was 95 % of control, the T/C (endpoint: median tumor weight (est.), dose: 10.0 mg/kg/injection, schedule: Q07DX005 (ip), vehicle: saline with Tween-80) was 115 % of control and the T/C (endpoint: median tumor weight (est.), dose: 20.0 mg/kg/injection, schedule: Q07DX005 (ip), vehicle: saline with Tween-80) was 75 % of control.
In the case of `O=C(NP(=O)(N1CC1)N1CC1)c1cc(I)ccc1I`, the T/C (endpoint: median tumor weight (est.), dose: 16.0 mg/kg/injection, schedule: Q07DX005 (ip), vehicle: saline with Tween-80) is reported as 68 % of control, the T/C (endpoint: median tumor weight (est.), dose: 32.0 mg/kg/injection, schedule: Q07DX005 (ip), vehicle: saline with Tween-80) is reported as 77 % of control and the T/C (endpoint: median tumor weight (est.), dose: 64.0 mg/kg/injection, schedule: Q07DX005 (ip), vehicle: saline with Tween-80) is reported as 49 % of control. The T/C (endpoint: median tumor weight (est.), dose: 128.0 mg/kg/injection, schedule: Q07DX005 (ip), vehicle: saline with Tween-80) was 6 % of control.
`OCC(O)C(O)C(O)C(O)CO` (stereo not drawn) was tested, and the T/C (endpoint: median tumor weight change, dose: 75.0 mg/kg/injection, schedule: Q01DX001 (ip), vehicle: saline) was 20 % of control, the T/C (endpoint: median tumor weight change, dose: 150.0 mg/kg/injection, schedule: Q01DX001 (ip), vehicle: saline) was 40 % of control and the T/C (endpoint: median tumor weight change, dose: 300.0 mg/kg/injection, schedule: Q01DX001 (ip), vehicle: saline) was 39 % of control. For the same compound, the T/C (endpoint: median tumor weight change, dose: 600.0 mg/kg/injection, schedule: Q01DX001 (ip), vehicle: saline) was 32 % of control and the T/C (endpoint: median tumor weight change, dose: 1200.0 mg/kg/injection, schedule: Q01DX001 (ip), vehicle: saline) was 45 % of control.
With `Oc1c(Cl)cc(C(c2cc(Cl)c(O)c(Cl)c2)C(c2cc(Cl)c(O)c(Cl)c2)c2cc(Cl)c(O)c(Cl)c2)cc1Cl` the T/C [5] was 540 % of control, the T/C [6] was 341 % of control and the T/C [7] was 294 % of control. For the same compound, the T/C [8] was 84 % of control and the T/C [9] was 192 % of control.
With `O=C(O)C1(NO)CCCCC1` the T/C (endpoint: median tumor weight change, dose: 125.0 mg/kg/injection, schedule: Q01DX001 (ip), vehicle: Klucel (hydroxypropylcellulose) (HPC)) was 76 % of control, the T/C (endpoint: median tumor weight change, dose: 250.0 mg/kg/injection, schedule: Q01DX001 (ip), vehicle: Klucel (hydroxypropylcellulose) (HPC)) was 64 % of control and the T/C (endpoint: median tumor weight change, dose: 500.0 mg/kg/injection, schedule: Q01DX001 (ip), vehicle: Klucel (hydroxypropylcellulose) (HPC)) was 61 % of control. For the same compound, the T/C (endpoint: median tumor weight change, dose: 1000.0 mg/kg/injection, schedule: Q01DX001 (ip), vehicle: Klucel (hydroxypropylcellulose) (HPC)) was 76 % of control and the T/C (endpoint: median tumor weight change, dose: 2000.0 mg/kg/injection, schedule: Q01DX001 (ip), vehicle: Klucel (hydroxypropylcellulose) (HPC)) was 124 % of control.
With `O=NN(CCF)C(=O)NC1CCCCC1` the T/C (endpoint: median tumor weight change, dose: 4.0 mg/kg/injection, schedule: Q01DX001 (ip), vehicle: Klucel (hydroxypropylcellulose) (HPC)) was 87 % of control, the T/C (endpoint: median tumor weight change, dose: 16.0 mg/kg/injection, schedule: Q01DX001 (ip), vehicle: Klucel (hydroxypropylcellulose) (HPC)) was 44 % of control and the T/C (endpoint: median tumor weight change, dose: 31.0 mg/kg/injection, schedule: Q01DX001 (ip), vehicle: Klucel (hydroxypropylcellulose) (HPC)) was 45 % of control. For the same compound, the T/C (endpoint: median tumor weight change, dose: 62.5 mg/kg/injection, schedule: Q01DX001 (ip), vehicle: Klucel (hydroxypropylcellulose) (HPC)) was 30 % of control.
For `O=c1n[n+]([O-])ccn1C1OC(CO)C(O)C1O` (stereo not drawn), the T/C (endpoint: mean tumor weight, dose: 150.0 mg/kg/injection, schedule: Q07DX006 (ip), vehicle: saline) was 175 % of control, the T/C (endpoint: mean tumor weight, dose: 150.0 mg/kg/injection, schedule: Q07DX007 (ip), vehicle: saline) was 50 % of control and the T/C (endpoint: mean tumor weight, dose: 300.0 mg/kg/injection, schedule: Q07DX006 (ip), vehicle: saline) was 90 % of control. The T/C (endpoint: mean tumor weight, dose: 300.0 mg/kg/injection, schedule: Q07DX007 (ip), vehicle: saline) was 60 % of control, the T/C (endpoint: mean tumor weight, dose: 600.0 mg/kg/injection, schedule: Q07DX006 (ip), vehicle: saline) was 33 % of control and the T/C (endpoint: mean tumor weight, dose: 600.0 mg/kg/injection, schedule: Q07DX007 (ip), vehicle: saline) was 65 % of control. For the same compound, the T/C [10] was 82 % of control, the T/C [11] was 93 % of control and the T/C [12] was 71 % of control. The T/C (endpoint: median tumor weight (est.), dose: 300.0 mg/kg/injection, schedule: Q07DX005 (ip), vehicle: saline) was 101 % of control and the T/C (endpoint: median tumor weight (est.), dose: 600.0 mg/kg/injection, schedule: Q07DX005 (ip), vehicle: saline) was 106 % of control.
`CCCCCCCCCCCCCCCCS(=O)CC(O)COC(=O)c1ccc(C(=O)OCC(O)CS(=O)CCCCCCCCCCCCCCCC)cc1` (stereo not drawn) was tested, and the T/C (endpoint: median tumor weight (est.), dose: 12.5 mg/kg/injection, schedule: Q07DX005 (ip), vehicle: saline + Tween-80 + alcohol) was 68 % of control and 88 % of control, the T/C (endpoint: median tumor weight (est.), dose: 25.0 mg/kg/injection, schedule: Q07DX005 (ip), vehicle: saline + Tween-80 + alcohol) was 69 % of control and 79 % of control and the T/C (endpoint: median tumor weight (est.), dose: 200.0 mg/kg/injection, schedule: Q07DX005 (ip), vehicle: saline + Tween-80 + alcohol) was 48 % of control and 64 % of control. For the same compound, the T/C (endpoint: median tumor weight (est.), dose: 400.0 mg/kg/injection, schedule: Q07DX005 (ip), vehicle: saline + Tween-80 + alcohol) was 78 % of control and 84 % of control.
`CO[C@@]12[C@@H]3N[C@@H]3CN1C1=C(C(=O)C(NCC3CCCO3)=C(C)C1=O)[C@@H]2COC(N)=O` (stereo partly drawn) was tested, and the T/C (endpoint: median tumor weight change, dose: 6.25 mg/kg/injection, schedule: Q01DX001 (ip), vehicle: distilled water + Tween-80) was 44 % of control.
`NC(=O)c1csc(C2OC(CO)C(O)C2O)n1` (stereo not drawn) was tested, and the T/C (endpoint: median tumor weight change, dose: 125.0 mg/kg/injection, schedule: Q01DX001 (ip), vehicle: water) was 87 % of control and 96 % of control, the T/C (endpoint: median tumor weight change, dose: 500.0 mg/kg/injection, schedule: Q01DX001 (ip), vehicle: water) was 11 % of control and 35 % of control and the T/C (endpoint: median tumor weight change, dose: 2000.0 mg/kg/injection, schedule: Q01DX001 (ip), vehicle: water) was 55 % of control.
